AC50 data for ten compounds are collected here from ChEMBL document CHEMBL5291721, “A preclinical secondary pharmacology resource illuminates target-adverse drug reaction associations of marketed drugs” (Nat Commun, 2023).

By AC50 is commonly meant the concentration at which the activity in the assay is half-maximal. Read a high AC50 as weaker potency.

A value given as a limit tells only on which side of the number the result lay.

The target of assay [1] is Histamine H2 receptor (Homo sapiens, UniProt P25021). It counts as functional, cell-based.
Assay [2] concerns the target Gamma-aminobutyric acid receptor subunit alpha-1 (Rattus norvegicus, UniProt P62813). The class given is functional.
In assay [3] the target is D(1A) dopamine receptor (Homo sapiens, UniProt P21728). It counts as functional, cell-based.
For assay [4], the target named is T1, Cholecystokinin receptor type A (Homo sapiens, UniProt P32238).
T1 sequence (P32238 whole entry): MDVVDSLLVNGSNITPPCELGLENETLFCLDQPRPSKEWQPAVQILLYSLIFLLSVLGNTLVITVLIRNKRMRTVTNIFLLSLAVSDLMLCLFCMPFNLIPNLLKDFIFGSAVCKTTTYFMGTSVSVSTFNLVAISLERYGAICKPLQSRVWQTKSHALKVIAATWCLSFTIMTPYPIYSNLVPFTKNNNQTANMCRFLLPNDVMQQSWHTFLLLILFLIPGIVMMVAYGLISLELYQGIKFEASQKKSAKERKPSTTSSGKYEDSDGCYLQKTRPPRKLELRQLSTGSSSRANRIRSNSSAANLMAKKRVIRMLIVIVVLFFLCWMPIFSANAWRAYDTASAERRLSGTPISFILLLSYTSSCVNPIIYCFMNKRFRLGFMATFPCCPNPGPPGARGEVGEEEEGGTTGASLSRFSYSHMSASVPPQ

The target of assay [5] is Glutamate receptor ionotropic, NMDA 1 (Rattus norvegicus, UniProt P35439).
Assay [6] addresses T2, Progesterone receptor (Homo sapiens, UniProt P06401).
T2 sequence (P06401 whole entry): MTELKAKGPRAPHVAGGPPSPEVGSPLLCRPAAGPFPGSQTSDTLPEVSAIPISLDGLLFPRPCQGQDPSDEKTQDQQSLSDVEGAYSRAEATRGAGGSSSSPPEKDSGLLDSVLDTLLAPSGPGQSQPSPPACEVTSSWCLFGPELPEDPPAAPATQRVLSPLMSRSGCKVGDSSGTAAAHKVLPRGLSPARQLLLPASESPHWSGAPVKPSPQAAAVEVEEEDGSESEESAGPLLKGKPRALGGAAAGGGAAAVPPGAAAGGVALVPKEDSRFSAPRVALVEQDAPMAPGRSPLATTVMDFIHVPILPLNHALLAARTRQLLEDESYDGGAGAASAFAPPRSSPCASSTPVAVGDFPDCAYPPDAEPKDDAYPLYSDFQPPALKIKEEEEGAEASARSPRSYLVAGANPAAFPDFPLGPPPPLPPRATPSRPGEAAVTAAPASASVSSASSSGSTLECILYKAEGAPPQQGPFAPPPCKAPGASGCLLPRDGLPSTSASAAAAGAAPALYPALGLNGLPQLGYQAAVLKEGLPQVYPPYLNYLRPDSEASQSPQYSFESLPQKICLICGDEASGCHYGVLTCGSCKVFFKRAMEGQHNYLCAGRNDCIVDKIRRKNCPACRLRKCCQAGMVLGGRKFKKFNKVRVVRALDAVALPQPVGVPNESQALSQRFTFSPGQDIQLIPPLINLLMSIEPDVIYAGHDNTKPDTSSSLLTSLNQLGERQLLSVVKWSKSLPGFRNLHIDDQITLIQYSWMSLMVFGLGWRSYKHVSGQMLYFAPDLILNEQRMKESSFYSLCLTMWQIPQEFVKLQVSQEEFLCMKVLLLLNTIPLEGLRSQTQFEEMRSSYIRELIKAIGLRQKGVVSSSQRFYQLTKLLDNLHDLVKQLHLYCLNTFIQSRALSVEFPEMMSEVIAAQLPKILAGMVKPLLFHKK
The class given is functional.

The target of assay [7] is Neuronal acetylcholine receptor subunit alpha-4 (Homo sapiens, UniProt P43681).
Assay [8] addresses T3, Cannabinoid receptor 1 (Homo sapiens, UniProt P21554). The class given is functional, cell-based.
The target in assay [9] is Sodium-dependent noradrenaline transporter (Homo sapiens, UniProt P23975).
Assay [10] addresses T4, Type-1 angiotensin II receptor (Homo sapiens, UniProt P30556).
T4 sequence (P30556 whole entry): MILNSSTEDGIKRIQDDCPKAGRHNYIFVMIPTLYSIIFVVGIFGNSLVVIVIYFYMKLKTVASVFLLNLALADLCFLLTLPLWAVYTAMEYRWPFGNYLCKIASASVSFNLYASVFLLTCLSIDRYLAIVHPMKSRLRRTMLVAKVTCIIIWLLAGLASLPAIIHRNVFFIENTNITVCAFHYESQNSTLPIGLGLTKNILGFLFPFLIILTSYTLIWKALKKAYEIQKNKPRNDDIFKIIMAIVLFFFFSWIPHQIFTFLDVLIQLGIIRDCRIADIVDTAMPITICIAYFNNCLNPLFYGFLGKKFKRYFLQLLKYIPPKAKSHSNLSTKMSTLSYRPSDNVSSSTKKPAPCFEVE

In assay [11] the target is Adenosine receptor A2a (Homo sapiens, UniProt P29274).
Assay [12] has as its target T5, Prostaglandin G/H synthase 1 (Rattus norvegicus, UniProt Q63921).
T5 sequence (Q63921 whole entry): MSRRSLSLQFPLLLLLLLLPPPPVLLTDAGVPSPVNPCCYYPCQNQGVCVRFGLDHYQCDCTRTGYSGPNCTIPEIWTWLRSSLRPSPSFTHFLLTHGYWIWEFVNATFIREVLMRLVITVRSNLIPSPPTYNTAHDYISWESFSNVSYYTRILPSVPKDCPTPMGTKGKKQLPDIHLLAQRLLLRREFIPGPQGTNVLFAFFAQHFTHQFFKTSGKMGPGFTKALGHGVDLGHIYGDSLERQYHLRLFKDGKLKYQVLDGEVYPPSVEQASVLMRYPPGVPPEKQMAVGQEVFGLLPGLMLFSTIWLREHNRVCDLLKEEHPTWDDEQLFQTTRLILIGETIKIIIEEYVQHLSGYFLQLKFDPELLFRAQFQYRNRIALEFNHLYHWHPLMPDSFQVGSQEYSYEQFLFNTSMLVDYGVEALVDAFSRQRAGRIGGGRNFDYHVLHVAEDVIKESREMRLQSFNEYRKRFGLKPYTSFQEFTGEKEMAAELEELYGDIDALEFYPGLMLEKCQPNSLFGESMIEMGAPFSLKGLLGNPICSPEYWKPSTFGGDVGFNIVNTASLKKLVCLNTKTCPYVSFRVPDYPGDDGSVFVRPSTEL
It counts as functional.

Assay [13] concerns the target T3, Cannabinoid receptor 1. The class given is functional, cell-based. The source holds these as a separate data set.
Note: assay procedure not described here.

Sodium-dependent noradrenaline transporter, sequence (P23975 whole entry): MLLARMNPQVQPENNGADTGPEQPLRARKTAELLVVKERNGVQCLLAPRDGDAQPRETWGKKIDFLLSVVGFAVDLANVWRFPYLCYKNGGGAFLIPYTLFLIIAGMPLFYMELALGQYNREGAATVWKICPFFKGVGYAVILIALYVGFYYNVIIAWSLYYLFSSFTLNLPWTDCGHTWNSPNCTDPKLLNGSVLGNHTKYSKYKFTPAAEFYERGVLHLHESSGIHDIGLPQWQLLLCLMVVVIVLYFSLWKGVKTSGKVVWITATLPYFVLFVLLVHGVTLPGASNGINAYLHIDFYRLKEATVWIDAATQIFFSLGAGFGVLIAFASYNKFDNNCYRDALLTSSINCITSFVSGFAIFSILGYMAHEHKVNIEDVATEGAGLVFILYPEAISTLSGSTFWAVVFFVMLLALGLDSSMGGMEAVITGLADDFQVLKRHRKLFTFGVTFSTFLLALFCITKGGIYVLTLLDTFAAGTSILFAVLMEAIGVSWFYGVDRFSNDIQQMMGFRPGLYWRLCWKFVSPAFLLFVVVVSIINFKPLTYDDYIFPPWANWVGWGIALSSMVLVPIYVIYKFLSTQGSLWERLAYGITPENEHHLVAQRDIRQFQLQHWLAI
D(1A) dopamine receptor, sequence (P21728 whole entry): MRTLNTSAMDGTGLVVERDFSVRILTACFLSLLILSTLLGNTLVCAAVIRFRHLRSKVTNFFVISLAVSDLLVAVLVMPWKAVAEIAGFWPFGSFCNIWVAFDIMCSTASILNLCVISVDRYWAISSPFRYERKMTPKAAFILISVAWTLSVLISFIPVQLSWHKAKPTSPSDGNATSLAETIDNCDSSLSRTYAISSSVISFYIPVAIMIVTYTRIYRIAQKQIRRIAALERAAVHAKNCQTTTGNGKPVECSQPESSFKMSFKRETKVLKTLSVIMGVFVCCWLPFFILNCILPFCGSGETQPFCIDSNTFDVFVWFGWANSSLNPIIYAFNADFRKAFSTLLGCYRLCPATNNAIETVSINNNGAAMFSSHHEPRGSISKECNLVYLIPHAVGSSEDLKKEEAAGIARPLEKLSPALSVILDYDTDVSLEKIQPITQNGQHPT
T3 sequence (P21554 whole entry): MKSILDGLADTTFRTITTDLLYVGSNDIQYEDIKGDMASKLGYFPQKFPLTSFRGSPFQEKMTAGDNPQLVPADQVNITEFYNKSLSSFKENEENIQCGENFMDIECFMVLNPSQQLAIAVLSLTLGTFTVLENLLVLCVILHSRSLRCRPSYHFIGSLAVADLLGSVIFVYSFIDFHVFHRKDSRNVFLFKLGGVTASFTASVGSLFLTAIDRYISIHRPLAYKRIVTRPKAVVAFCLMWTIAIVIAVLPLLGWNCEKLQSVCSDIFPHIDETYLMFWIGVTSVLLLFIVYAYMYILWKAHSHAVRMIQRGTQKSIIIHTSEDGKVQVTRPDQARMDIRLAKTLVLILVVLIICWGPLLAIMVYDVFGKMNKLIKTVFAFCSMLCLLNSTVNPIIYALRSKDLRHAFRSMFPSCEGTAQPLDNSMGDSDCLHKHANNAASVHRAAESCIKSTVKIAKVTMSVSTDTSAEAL
Gamma-aminobutyric acid receptor subunit alpha-1, sequence (P62813 whole entry): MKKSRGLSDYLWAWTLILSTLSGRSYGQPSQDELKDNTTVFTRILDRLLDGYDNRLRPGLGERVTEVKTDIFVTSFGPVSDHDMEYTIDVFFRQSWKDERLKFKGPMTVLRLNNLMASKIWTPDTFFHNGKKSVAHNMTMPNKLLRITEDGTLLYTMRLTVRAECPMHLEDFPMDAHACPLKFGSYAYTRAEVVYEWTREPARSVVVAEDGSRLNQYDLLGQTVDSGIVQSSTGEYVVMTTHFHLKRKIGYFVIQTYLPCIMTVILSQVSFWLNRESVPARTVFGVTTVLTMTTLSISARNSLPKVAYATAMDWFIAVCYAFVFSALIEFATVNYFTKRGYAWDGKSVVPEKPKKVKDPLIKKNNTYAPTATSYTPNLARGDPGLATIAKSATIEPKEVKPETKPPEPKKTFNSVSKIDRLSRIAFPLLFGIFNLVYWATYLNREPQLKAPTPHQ
Histamine H2 receptor, sequence (P25021 whole entry): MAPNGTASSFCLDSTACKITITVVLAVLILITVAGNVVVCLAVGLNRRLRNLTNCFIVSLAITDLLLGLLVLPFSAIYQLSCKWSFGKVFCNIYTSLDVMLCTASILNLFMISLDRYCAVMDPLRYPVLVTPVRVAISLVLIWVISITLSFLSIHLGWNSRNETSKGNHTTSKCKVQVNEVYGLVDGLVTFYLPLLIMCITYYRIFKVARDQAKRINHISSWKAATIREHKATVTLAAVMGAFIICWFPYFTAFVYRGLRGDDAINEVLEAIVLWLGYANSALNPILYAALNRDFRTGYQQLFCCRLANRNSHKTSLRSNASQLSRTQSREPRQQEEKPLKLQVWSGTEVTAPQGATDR
Adenosine receptor A2a, sequence (P29274 whole entry): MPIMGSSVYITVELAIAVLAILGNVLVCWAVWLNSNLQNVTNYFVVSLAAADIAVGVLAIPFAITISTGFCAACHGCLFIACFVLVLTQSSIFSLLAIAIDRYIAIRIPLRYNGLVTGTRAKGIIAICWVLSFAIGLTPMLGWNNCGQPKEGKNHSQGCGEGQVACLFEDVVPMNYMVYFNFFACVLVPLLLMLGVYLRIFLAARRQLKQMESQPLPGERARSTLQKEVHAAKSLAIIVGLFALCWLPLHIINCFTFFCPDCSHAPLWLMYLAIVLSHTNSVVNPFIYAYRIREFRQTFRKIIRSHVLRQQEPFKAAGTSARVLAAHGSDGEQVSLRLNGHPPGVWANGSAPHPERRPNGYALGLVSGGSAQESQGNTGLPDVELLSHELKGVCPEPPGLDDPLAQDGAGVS
Neuronal acetylcholine receptor subunit alpha-4, sequence (P43681 whole entry): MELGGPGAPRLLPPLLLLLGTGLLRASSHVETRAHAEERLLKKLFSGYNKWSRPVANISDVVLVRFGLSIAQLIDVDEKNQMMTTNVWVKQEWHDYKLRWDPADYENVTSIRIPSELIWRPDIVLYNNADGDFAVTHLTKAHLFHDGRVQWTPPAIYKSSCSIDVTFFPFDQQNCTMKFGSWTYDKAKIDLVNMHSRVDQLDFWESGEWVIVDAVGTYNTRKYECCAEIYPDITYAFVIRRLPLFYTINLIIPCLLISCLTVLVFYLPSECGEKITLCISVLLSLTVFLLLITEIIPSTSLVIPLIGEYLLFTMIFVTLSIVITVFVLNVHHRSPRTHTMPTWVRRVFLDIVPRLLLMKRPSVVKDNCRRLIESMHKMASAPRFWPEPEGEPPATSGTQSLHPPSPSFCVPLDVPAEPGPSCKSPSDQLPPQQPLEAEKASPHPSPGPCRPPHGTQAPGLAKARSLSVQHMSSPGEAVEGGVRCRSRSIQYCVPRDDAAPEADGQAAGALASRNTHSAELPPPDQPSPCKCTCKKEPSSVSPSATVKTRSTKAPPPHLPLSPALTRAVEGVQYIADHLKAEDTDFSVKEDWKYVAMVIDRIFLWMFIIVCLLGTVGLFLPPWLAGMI

Take `CCCCCCC(C)(C)c1cc(O)c2c(c1)OC(C)(C)C1CCC(=O)CC21` (stereo not drawn) [NABILONE]: the AC50 in [1], in assay [2], in assay [3], in assay [4], in [5] and in assay [6] was more than 30 µM in each case. Moreover, the AC50 is more than 30 µM in assay [7]; 0.168 µM in assay [8]; more than 30 µM in [9]; more than 30 µM in [10]; more than 30 µM in assay [11]; more than 30 µM in assay [12].

Take `CCCC(CCC)C(=O)O[C@H]1C[C@H]2CC[C@@H](C1)[N+]2(C)C` [ANISOTROPINE]: the AC50 in assay [1], in assay [2], in [3], in [4], in assay [13] and in assay [5] was more than 30 µM each time. For the same compound, the AC50 in [6] was more than 30 µM; in assay [7], 26 µM; in [8] it was more than 30 µM; in assay [10] it was more than 30 µM; in [11], more than 30 µM; in [12] it was more than 30 µM.

Regarding `O=C1CN=C(c2ccccc2)c2cc(Cl)ccc2N1CC(F)(F)F` [HALAZEPAM], the AC50 in assay [1] was more than 30 µM; in assay [2], 0.506 µM; in [3], more than 30 µM; in [4], more than 30 µM; in [13] it was more than 30 µM; in assay [5], more than 30 µM. Further, the AC50 in [6], in [7], in [8], in assay [9], in [10] and in [11] was more than 30 µM throughout. This compound also yielded an AC50 in assay [12] of more than 30 µM.

Take `CCCCC(C)(O)C/C=C/[C@H]1[C@H](O)CC(=O)[C@@H]1CCCCCCC(=O)OC` (stereo partly drawn) [MISOPROSTOL]: the AC50 in [1], in assay [2], in assay [3], in assay [4], in assay [13] and in assay [5] was more than 30 µM in each case. Further, the half-maximal activity concentration (AC50) is 27 µM in assay [6]; more than 30 µM in assay [7]; more than 30 µM in [8]; more than 30 µM in [9]; more than 30 µM in assay [10]; more than 30 µM in assay [11]. For the same compound, the AC50 in assay [12] was more than 30 µM.

As for `C=C1CC[C@@]2(O)[C@H]3Cc4ccc(O)c5c4[C@@]2(CCN3CC2CC2)[C@H]1O5`, the AC50 in assay [1], in assay [2], in assay [3], in assay [4], in assay [13] and in assay [5] was more than 30 µM each time. In addition, the AC50 in assay [6], in [7], in assay [8], in [9], in assay [10] and in [11] was more than 30 µM each time. In assay [12], this compound displayed a concentration at half-maximal activity (AC50) of more than 30 µM.

Consider `[H]/N=C(/N)c1ccc(NCc2nc3cc(C(=O)N(CCC(=O)O)c4ccccn4)ccc3n2C)cc1` [DABIGATRAN], for which the AC50 in assay [1], in assay [2], in assay [3], in [4], in assay [13] and in [5] was more than 30 µM each time. The AC50 in assay [6], in assay [7], in assay [8], in assay [9], in assay [10] and in [11] was more than 30 µM each time. The same compound gave an AC50 in assay [12] of more than 30 µM.

`CCCCCOC(=O)Nc1nc(=O)n([C@@H]2O[C@H](C)[C@@H](O)[C@H]2O)cc1F` [CAPECITABINE]: the AC50 in [1], in assay [2], in assay [3], in assay [4], in assay [13] and in [5] was more than 30 µM each time. The AC50 in assay [6], in assay [7], in [8], in assay [9], in assay [10] and in [11] was more than 30 µM each time. Besides, in [12], the AC50 is more than 30 µM.

Regarding `CCCOc1ccc(C(=O)OCCN(CC)CC)cc1N` [PROPARACAINE], the AC50 in [1], in [2], in [3], in [4], in [13] and in assay [5] was more than 30 µM in each case. Moreover, the AC50 in assay [6], in [7], in assay [8], in [9], in [10] and in assay [11] was more than 30 µM throughout. Further, the AC50 in [12] came to 0.75 µM.

Turning to `Nc1ncnc2c1ncn2[C@@H]1O[C@H](COP(=O)(O)O)[C@@H](O)[C@H]1O` [ADENOSINE PHOSPHATE], the AC50 in assay [1], in assay [2], in assay [3], in assay [4], in assay [13] and in assay [5] was more than 30 µM throughout. Also, the AC50 in assay [6], in [7], in assay [8], in [9], in assay [10] and in assay [11] was more than 30 µM throughout. The AC50 in assay [12] was more than 30 µM.

Take `Nc1nc2ccc(OC(F)(F)F)cc2s1` [RILUZOLE]: the AC50 in [1], in assay [2], in assay [3], in assay [4], in [13] and in assay [5] was more than 30 µM each time. Besides, the half-maximal activity concentration (AC50) was more than 30 µM in assay [6]; more than 30 µM in [7]; more than 30 µM in assay [8]; 19 µM in assay [9]; more than 30 µM in [10]; more than 30 µM in assay [11]. The compound also yielded an AC50 in [12] of more than 30 µM.
